Measurements from ChEMBL document CHEMBL1201862, “PubChem BioAssay data set” (2004).
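Five compound concentrations were applied to cells in 96-well plates for 48 hours; endpoints were derived by simple linear interpolation of the resulting dose-response curve. Here, GI50 denotes the concentration required for 50% inhibition of growth.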 Active and inactive are the calls of the source. Rule as the data show it: active = GI50 up to about 1.1 µM and inactive = higher.

Legend:
Experiment in all cases: DTP human tumour cell line panel, 48 h
CCRF-CEM = system: CCRF-CEM
HT-29 = system: HT-29
DU-145 = system: DU-145
PC-3 = system: PC-3
RPMI-8226 = system: RPMI-8226
MDA-MB-435 = system: MDA-MB-435
SF-539 = system: SF-539
OVCAR-3 = system: OVCAR-3
EKVX = system: EKVX
SR = system: SR
ACHN = system: ACHN
MDA-N = system: MDA-N
SK-MEL-28 = system: SK-MEL-28
HCC 2998 = system: HCC 2998
NCI-H226 = system: NCI-H226
SK-MEL-5 = system: SK-MEL-5
OVCAR-4 = system: OVCAR-4
U-251 = system: U-251
NCI/ADR-RES = system: NCI/ADR-RES
IGROV-1 = system: IGROV-1

| Compound | GI50 (CCRF-CEM) | GI50 (HT-29) | GI50 (DU-145) | GI50 (PC-3) | GI50 (RPMI-8226) | GI50 (MDA-MB-435) | GI50 (SF-539) | GI50 (OVCAR-3) | GI50 (EKVX) | GI50 (SR) | GI50 (ACHN) | GI50 (MDA-N) | GI50 (SK-MEL-28) | GI50 (HCC 2998) | GI50 (NCI-H226) | GI50 (SK-MEL-5) | GI50 (OVCAR-4) | GI50 (U-251) | GI50 (NCI/ADR-RES) | GI50 (IGROV-1) |
| --- | --- | --- | --- | --- | --- | --- | --- | --- | --- | --- | --- | --- | --- | --- | --- | --- | --- | --- | --- | --- |
| C=C(C)C1CC[C@@](C)(O)[C@H](C#N)C1 (some centres not stated) | > 100 µM (inactive) | > 100 µM (inactive) | > 100 µM (inactive) | 71 µM (inactive) | > 100 µM (inactive) | > 100 µM (inactive) | > 100 µM (inactive) | > 100 µM (inactive) | > 100 µM (inactive) | > 100 µM (inactive) | > 100 µM (inactive) | > 100 µM (inactive) | > 100 µM (inactive) | > 100 µM (inactive) | > 100 µM (inactive) | > 100 µM (inactive) | > 100 µM (inactive) | > 100 µM (inactive) | – | – |
| CCOC(=O)/C=C(/C(=O)OCC)n1cc(Cl)c(=O)n(CC(=O)OCC)c1=O | 0.444 µM (active) | 4.56 µM (inactive) | 4.61 µM (inactive) | 4.76 µM (inactive) | 2.47 µM (inactive) | 4.95 µM (inactive) | 5.04 µM (inactive) | 5.98 µM (inactive) | 5.27 µM (inactive) | 5.24 µM (inactive) | 3.4 µM (inactive) | 5.81 µM (inactive) | 5.02 µM (inactive) | – | > 25 µM (inactive) | 5.66 µM (inactive) | 6.03 µM (inactive) | 5.83 µM (inactive) | 8.95 µM (inactive) | 4.76 µM (inactive) |
| COc1nc2sc3c(c2c(=O)n1CCCSSCCCn1c(OC)nc2sc4c(c2c1=O)CCCC4)CCCC3 | > 100 µM (inactive) | > 100 µM (inactive) | > 100 µM (inactive) | > 100 µM (inactive) | 6.92 µM (inactive) | > 100 µM (inactive) | > 100 µM (inactive) | – | > 100 µM (inactive) | – | > 100 µM (inactive) | > 100 µM (inactive) | > 100 µM (inactive) | > 100 µM (inactive) | > 100 µM (inactive) | > 100 µM (inactive) | > 100 µM (inactive) | > 100 µM (inactive) | > 100 µM (inactive) | > 100 µM (inactive) |
| COc1c(O)cc(/C=C/c2cc(O)cc3c2[C@@]2(C(=O)O3)c3c(O)cc(O)cc3OC2c2cccc(O)c2)cc1O (some centres not stated) | 30.5 µM (inactive) | 30.5 µM (inactive) | 72.1 µM (inactive) | 51.8 µM (inactive) | 14.7 µM (inactive) | 54.3 µM (inactive) | 39.4 µM (inactive) | 54 µM (inactive) | – | 1.57 µM (inactive) | 27.4 µM (inactive) | 39.5 µM (inactive) | 35.2 µM (inactive) | – | – | 32 µM (inactive) | 19.6 µM (inactive) | 41.4 µM (inactive) | 26.4 µM (inactive) | 16.2 µM (inactive) |
| Oc1ccccc1/C=N/c1ccc(-c2nc3ccccc3[nH]2)cc1 | 22.5 µM (inactive) | 81.8 µM (inactive) | 65.8 µM (inactive) | 50.5 µM (inactive) | 26.6 µM (inactive) | 67.6 µM (inactive) | > 100 µM (inactive) | > 100 µM (inactive) | > 100 µM (inactive) | 44.7 µM (inactive) | > 100 µM (inactive) | 54.7 µM (inactive) | > 100 µM (inactive) | – | > 100 µM (inactive) | 27.8 µM (inactive) | > 100 µM (inactive) | 49.9 µM (inactive) | 4.53 µM (inactive) | 28.4 µM (inactive) |
| COc1ccc(NCc2cc(OC)c(OC)c(OC)c2)cc1 | – | 0.312 µM (active) | 0.857 µM (active) | 0.912 µM (active) | 0.612 µM (active) | 0.0711 µM (active) | 0.265 µM (active) | 0.255 µM (active) | 4.74 µM (inactive) | 0.228 µM (active) | – | 0.0867 µM (active) | 0.396 µM (active) | 0.362 µM (active) | – | 0.293 µM (active) | 17.3 µM (inactive) | 0.431 µM (active) | 0.366 µM (active) | 0.582 µM (active) |
| COc1ccc(S(=O)(=O)Nc2ccc(-c3csc(N4C(=O)/C(=C/c5cccs5)N=C4c4ccccc4)n3)cc2)cc1Cl | – | > 100 µM (inactive) | 42.2 µM (inactive) | 34.8 µM (inactive) | – | 44 µM (inactive) | 54.2 µM (inactive) | 43.6 µM (inactive) | – | 28.6 µM (inactive) | 35.4 µM (inactive) | 34.1 µM (inactive) | 65.5 µM (inactive) | 44.7 µM (inactive) | 65.5 µM (inactive) | 40.8 µM (inactive) | 40.2 µM (inactive) | 34.9 µM (inactive) | 39.4 µM (inactive) | 30.5 µM (inactive) |
| CC12CC3OC(=O)C1COC14OC5(C2C1=O)C(O)(CCC1C4CC(O)C2(O)CC=CC(=O)C12C)C(=O)OC35C (configuration not stated) | > 100 µM (inactive) | > 100 µM (inactive) | > 100 µM (inactive) | > 100 µM (inactive) | > 100 µM (inactive) | 68.4 µM (inactive) | > 100 µM (inactive) | > 100 µM (inactive) | > 100 µM (inactive) | – | > 100 µM (inactive) | 83.4 µM (inactive) | > 100 µM (inactive) | > 100 µM (inactive) | > 100 µM (inactive) | > 100 µM (inactive) | > 100 µM (inactive) | > 100 µM (inactive) | > 100 µM (inactive) | > 100 µM (inactive) |
| Cc1ccc(NCc2nnc3c(-c4ccccc4)nc4ccccc4n23)cc1 | 15.1 µM (inactive) | 21.5 µM (inactive) | 25.2 µM (inactive) | 19.1 µM (inactive) | – | 29.6 µM (inactive) | 60.5 µM (inactive) | 49.7 µM (inactive) | 18.7 µM (inactive) | 13 µM (inactive) | 23.9 µM (inactive) | 26.2 µM (inactive) | 64 µM (inactive) | 44.6 µM (inactive) | 44 µM (inactive) | 14.4 µM (inactive) | 28.2 µM (inactive) | 16.7 µM (inactive) | 50.9 µM (inactive) | 17.5 µM (inactive) |
| COc1ccc(/C=N\N(C)Cc2cccc3ccsc23)cc1 | > 100 µM (inactive) | 49.2 µM (inactive) | > 100 µM (inactive) | > 100 µM (inactive) | – | > 100 µM (inactive) | – | 33.6 µM (inactive) | > 100 µM (inactive) | 90.2 µM (inactive) | > 100 µM (inactive) | 70.6 µM (inactive) | > 100 µM (inactive) | > 100 µM (inactive) | > 100 µM (inactive) | 28.6 µM (inactive) | 92.5 µM (inactive) | > 100 µM (inactive) | > 100 µM (inactive) | > 100 µM (inactive) |
| N#C[C@H](C(=O)c1ccccc1F)c1nc2ccccc2s1 | 23.4 µM (inactive) | 28.1 µM (inactive) | 42.6 µM (inactive) | 24.2 µM (inactive) | 22.5 µM (inactive) | 39.8 µM (inactive) | 20.7 µM (inactive) | 18.5 µM (inactive) | 28 µM (inactive) | – | 49.1 µM (inactive) | 38.3 µM (inactive) | 36.5 µM (inactive) | – | 21.9 µM (inactive) | 26.9 µM (inactive) | – | 33.3 µM (inactive) | 26.9 µM (inactive) | 17.8 µM (inactive) |
| C[C@]12CC[C@H]3[C@@H](CC=C4C[C@@H](O)CC[C@@]43C)[C@@H]1C[C@H](N1CCOCC1)[C@@H]2O | > 100 µM (inactive) | 6.34 µM (inactive) | > 100 µM (inactive) | > 100 µM (inactive) | > 100 µM (inactive) | > 100 µM (inactive) | 40 µM (inactive) | > 100 µM (inactive) | > 100 µM (inactive) | – | > 100 µM (inactive) | > 100 µM (inactive) | > 100 µM (inactive) | > 100 µM (inactive) | > 100 µM (inactive) | 77.3 µM (inactive) | > 100 µM (inactive) | 49.2 µM (inactive) | > 100 µM (inactive) | > 100 µM (inactive) |
| Nc1nc(N)c(CCCCc2ccc([N+](=O)[O-])cc2)c(N)n1 | > 20.3 µM (inactive) | 7.67 µM (inactive) | 76 µM (inactive) | 7.71 µM (inactive) | > 25.9 µM (inactive) | – | > 85.3 µM (inactive) | > 100 µM (inactive) | > 100 µM (inactive) | 10.6 µM (inactive) | 27.9 µM (inactive) | > 100 µM (inactive) | – | 38.1 µM (inactive) | > 100 µM (inactive) | 16.7 µM (inactive) | > 100 µM (inactive) | 10.6 µM (inactive) | > 100 µM (inactive) | 23.6 µM (inactive) |
| Cn1c(C(O)C2(c3cccnc3)SCCCS2)cc2ccccc21 (configuration not stated) | 84.7 µM (inactive) | > 100 µM (inactive) | > 100 µM (inactive) | 66.1 µM (inactive) | 38.5 µM (inactive) | 90.2 µM (inactive) | – | 36.6 µM (inactive) | 72.3 µM (inactive) | 55.5 µM (inactive) | > 100 µM (inactive) | > 100 µM (inactive) | > 100 µM (inactive) | > 100 µM (inactive) | > 100 µM (inactive) | 37.6 µM (inactive) | 67.8 µM (inactive) | > 100 µM (inactive) | > 100 µM (inactive) | 30 µM (inactive) |
| O=C1/C(=C/c2ccc(O)c(CN3CCCCC3)c2)CCC/C1=C\c1ccc(O)c(CN2CCCCC2)c1 | 3.32 µM (inactive) | 1.51 µM (inactive) | 4.4 µM (inactive) | 7.05 µM (inactive) | 6.85 µM (inactive) | 4.66 µM (inactive) | – | 5.12 µM (inactive) | 8.85 µM (inactive) | – | 6.31 µM (inactive) | 4.66 µM (inactive) | 13.3 µM (inactive) | 5.64 µM (inactive) | 15.5 µM (inactive) | 14 µM (inactive) | 6.81 µM (inactive) | 5.22 µM (inactive) | 2.89 µM (inactive) | 5.75 µM (inactive) |
